In ChEMBL document CHEMBL3988442, “University of Dundee, Small-Polar-MMV Screening Library” (2021):

System: Schistosoma mansoni
Experiment: High throughput screening of compounds against Schistosoma mansoni motility
Type: functional
Set-up: dose or concentration left out as unconfirmed

CCCNC(=O)CNC(=O)CCc1ccccc1Br
Percent Effect: 24.36%

O=C1NCCCCC1Sc1nnc(C2CC2)n1C1CC1 (stereo not drawn)
Percent Effect: -44.06%

CCc1cnc2c(c1NCc1ccncc1)c(=O)n(C)c(=O)n2C
Percent Effect: -33.12%

COCCNC(=O)Cn1nc(C(C)C)c2cnn(C(C)(C)C)c2c1=O
Percent Effect: -20.39%

O=C(c1cn(-c2cc(N3CCOCC3)ncn2)cn1)N1CCSCC1
Percent Effect: -64.76%

O=C(c1cn(-c2cc(N3CCSCC3)ncn2)cn1)N1CCSCC1
Percent Effect: -48.35%

Cc1ccc(N2CCN(C(=O)COc3nccc(C)n3)CC2)nn1
Percent Effect: -46.68%

CC(=O)NCCN1CCC(c2cccs2)CC1
Percent Effect: -65.41%

O=C(Nc1nc2c(s1)CN(S(=O)(=O)C1CC1)CC2)c1c(F)cccc1F
Percent Effect: 15.1%

O=S(=O)(c1cccnc1)N1CCN(CCn2ccnc2)CC1
Percent Effect: -24.98%

Cc1cccc(CS(=O)(=O)NCC(O)Cc2ccccc2)c1 (stereo not drawn)
Percent Effect: 8.547%

COc1cccc(S(=O)(=O)NC2CNC(=O)C2)c1 (stereo not drawn)
Percent Effect: -3.901%

Cn1c(C(F)(F)F)nn(CCNC(=O)c2cnc3ccccc3n2)c1=O
Percent Effect: -7.141%

CC(=O)N1CCC(Oc2ccc(Cl)cn2)CC1
Percent Effect: -33.97%

Cn1cnnc1S(=O)(=O)C1CCN(S(=O)(=O)c2ccc(F)c(Cl)c2)CC1
Percent Effect: -43.49%

O=S1(=O)CCCN1Cc1coc(-c2cccs2)n1
Percent Effect: -11.58%

O=C(NCc1ccoc1)Nc1ccc(CN2CCOC2=O)cc1
Percent Effect: -8.505%

CCCNC(=O)C(C)NC(=O)CCc1ccccc1Br (stereo not drawn)
Percent Effect: 31.68%

Cc1cnc(C(=O)N(CCN(C)C)Cc2ccc(Cl)cc2)cn1
Percent Effect: 17.37%

NC(=O)CN1CCCN(C(=O)c2ccn(-c3ccccc3)n2)CC1
Percent Effect: -17.53%

COCCN(Cc1ccc(F)cc1Cl)C(=O)c1cccc[n+]1[O-]
Percent Effect: -17.57%

COc1cc(C)nc(N2CCN(Cc3nccn3C)CC2)n1
Percent Effect: -41.68%

O=C(CSc1ccc2c(c1)OCCO2)NS(=O)(=O)C1CCCCC1
Percent Effect: 7.796%

CN(C)S(=O)(=O)N1CCN(c2nccc(C(F)(F)F)n2)CC1
Percent Effect: -52.05%

CCc1noc(C(C)N(C)CC(=O)Nc2c(C)cccc2C)n1 (stereo not drawn)
Percent Effect: -71%

O=C(NCCCn1cccn1)C1(c2ccc(F)cc2)CC1
Percent Effect: 23.22%

Cc1ccc(C(=O)NC(CN2CCCC2=O)c2ccccc2)c(=O)[nH]1 (stereo not drawn)
Percent Effect: -58.7%

Cc1ccc(C(=O)NC(C)CN2CCCC2=O)c(=O)[nH]1 (stereo not drawn)
Percent Effect: -45.23%

Cc1nn(C)c(N(C)C)c1CNCC(O)COc1ccc(F)cc1 (stereo not drawn)
Percent Effect: -41.92%

Cc1nc(C(C)(C)NC(=O)Nc2cccc(C#N)c2)no1
Percent Effect: -35.79%

CC(C)(C)C(=O)NCCC(=O)NS(=O)(=O)c1ccc2c(c1)OCCO2
Percent Effect: -42.92%

Cc1c(Br)cccc1C(=O)NC(C)CN1CCCC1=O (stereo not drawn)
Percent Effect: -4.935%

CCn1nc2c(cc1=O)CN(Cc1nc3ccccc3c(=O)[nH]1)CC2
Percent Effect: -62.65%

NC(=O)CCOc1nc(-c2ccccc2Cl)no1
Percent Effect: -31.15%

Cc1nc(CN2CCc3cncnc3C2)oc1C
Percent Effect: -26.27%

Cc1ccn(-c2ccccc2NCc2ccccn2)n1
Percent Effect: -12.81%

Cc1ccc(F)c(C(=O)N2CCN(S(C)(=O)=O)[C@@H](C)C2)c1
Percent Effect: -35.69%

CC(C)c1nnc2n1CC(CNCc1ccncc1)CC2 (stereo not drawn)
Percent Effect: -34.29%

CCN(CC)C(=O)c1ccc(-c2ccsc2)nc1C
Percent Effect: -45.64%

CC1CCN(CCNC(=O)c2cncnc2C(C)C)CC1
Percent Effect: -17.46%

O=C(Nc1cccc(CN2CCOC2=O)c1)N1CCOCC1
Percent Effect: 11.29%

CC(C)(C(=O)NCC1CC1)c1ccccc1F
Percent Effect: 9.48%

Cc1cc(C)n(Cc2ccc(C(=O)NCCN3CCOCC3)cc2)n1
Percent Effect: -9.196%

CCc1ccc(C(=O)N2CCCC(n3cncn3)C2)o1 (stereo not drawn)
Percent Effect: -35.91%

COc1ccc(CNCCc2cc(F)cc3c2OCOC3)cc1O
Percent Effect: -21.14%

Cc1nc(C)n(CC2CN(CC(=O)Nc3cccnc3)CCO2)n1 (stereo not drawn)
Percent Effect: -4.464%

O=C(c1ccc(Br)o1)N1CCCC(n2cncn2)C1 (stereo not drawn)
Percent Effect: -24.61%

Cc1ccc(CNCC2CCc3nnc(C(C)C)n3C2)s1 (stereo not drawn)
Percent Effect: 21.49%

COCc1ccccc1C(=O)NCCCN1CCCC1C(=O)N(C)C (stereo not drawn)
Percent Effect: -41.89%

CS(=O)(=O)Cc1cccc(C(=O)NCC2Cc3ccccc3O2)c1 (stereo not drawn)
Percent Effect: -78.27%

Cc1cccc(CNCc2c(C)nn(C)c2N2CCOCC2)n1
Percent Effect: -105.3%

Cc1csc(N2CCN(Cc3ccccn3)CC2C)n1 (stereo not drawn)
Percent Effect: -63.75%

Cc1csc(N2CCN(Cc3cnc(C)s3)CC2C)n1 (stereo not drawn)
Percent Effect: -30.28%

CCc1ccc(C(=O)Nc2ccc(CC3CC(=O)NC3=O)cc2)cc1 (stereo not drawn)
Percent Effect: -47.76%

Cc1cccc(N2CCC(NC(=O)CCCc3cccs3)CC2)n1
Percent Effect: -13.77%

O=C(Cc1cccs1)NC1CCN(c2cccc(F)c2)CC1
Percent Effect: -37.43%

OCC1CCCN1c1cc(NCCNc2ccccn2)ncn1 (stereo not drawn)
Percent Effect: -56.18%

CC1CN(C)c2ccccc2CN1C(=O)c1ccc[nH]1 (stereo not drawn)
Percent Effect: -38.54%

CC(C1CC1)N(C(=O)NCCCn1nc2ccccn2c1=O)C1CC1 (stereo not drawn)
Percent Effect: -46.88%

Cn1c(CN2CCN(CC3CC3)CC2)nnc1C1CCC1
Percent Effect: -23.98%

CC(C)c1nc(CN(C)C2CCN(CC(F)(F)F)C2)no1 (stereo not drawn)
Percent Effect: -30.86%

CC(C)S(=O)(=O)NCC1CCCN(C(=O)c2ccc3c(c2)CCC3)C1 (stereo not drawn)
Percent Effect: -22.55%

CCN1CCCC1CN(CCN(C)C)S(=O)(=O)c1ccc(C#N)cc1 (stereo not drawn)
Percent Effect: 8.845%

Cc1nc(C)n(CC2CN(CCc3ccncc3)CCO2)n1 (stereo not drawn)
Percent Effect: -26.46%

Cc1nsc(N2CCCN(c3nc(C4CC4)ns3)CC2)n1
Percent Effect: -32.57%

Cc1n[nH]c(C)c1C1COCCN1C(=O)Cc1cccc(F)c1 (stereo not drawn)
Percent Effect: -66.08%

Cc1csc(N2CCN(CCc3ccccn3)CC2C)n1 (stereo not drawn)
Percent Effect: -16.94%

COCCNS(=O)(=O)c1cccc2c1CN(C(=O)c1ccccc1)CC2
Percent Effect: 10.23%

CC(c1ccccc1)n1c(SCC(=O)O)nnc1-c1ccccc1Cl (stereo not drawn)
Percent Effect: 15.81%

CCn1nc(CC(C)C)cc1C(=O)NCCCOC
Percent Effect: -69.66%

CC(CN1CCC2(CC1)c1nc[nH]c1CCN2S(C)(=O)=O)C(F)(F)F (stereo not drawn)
Percent Effect: 2.483%

COCCN1CCC(CN(CC2CCCO2)C(=O)CCNC(C)=O)CC1 (stereo not drawn)
Percent Effect: -20.27%

COc1cccc2c1OCC(C(=O)N(C)CCCc1cnn(C)c1)C2 (stereo not drawn)
Percent Effect: -37.39%

COc1cccc(C(=O)N2CCCC(C(=O)CCc3ccccc3)C2)c1 (stereo not drawn)
Percent Effect: 20.31%

CC(CN1CCOCC1)NCc1nncn1C1CCCCC1 (stereo not drawn)
Percent Effect: 0.8698%

O=C(c1cnc(COc2ccccc2)nc1O)N1CCOCC1
Percent Effect: 1.503%

CN1CCCN(C(=O)c2ccc3c(c2)nc(N2CCOCC2)n3C)CC1
Percent Effect: -26.36%

CCc1cc(NC2CCN(S(C)(=O)=O)CC2)n2nc(C)c(C)c2n1
Percent Effect: -49.44%

CN(C)C(=O)c1ccc2c(c1)N(C)C(CC(=O)NCc1ccno1)CO2 (stereo not drawn)
Percent Effect: 0.8383%

Cc1cnccc1N1CCCN(C(=O)CCCS(N)(=O)=O)CC1
Percent Effect: -57.05%

Cn1c(Cn2cccn2)nnc1C1CCN(Cc2cccnc2N)CC1
Percent Effect: -7.123%

O=C(c1cccc(S(=O)(=O)NCCCc2ccco2)c1)N1CCOCC1
Percent Effect: -44.89%

Cc1nccc(N2CCC(=O)N(Cc3ccc(F)cc3)C(C(C)C)C2)n1 (stereo not drawn)
Percent Effect: -22.84%

Cc1ccc(C(=O)N2CCC3(CCC(=O)N(CC(N)=O)C3)CC2)c(O)c1
Percent Effect: -13.5%

CCC1c2cccn2CCN1C(=O)c1ccc2nonc2c1 (stereo not drawn)
Percent Effect: -19.69%

COc1cccc(N2CCN(Cc3ncc[nH]3)CC2=O)c1
Percent Effect: -64.93%

CCn1nc(C(C)C)cc1C(=O)NCCCOC
Percent Effect: -51.54%

CSCC[C@H](N)C(=O)NCc1cc2n(n1)CCCN(C1CCCCC1)C2
Percent Effect: -26.84%

CCOCCNc1nc(C2CCCC2)nc2c1cnn2C
Percent Effect: -80.64%

O=C(c1ccc[nH]1)N1CCC(c2nccn2Cc2ccncc2)CC1
Percent Effect: -12.18%

CC(=O)NC(C)CC(=O)NCc1cccnc1Oc1ccccc1C (stereo not drawn)
Percent Effect: 11.59%

Cc1cc(N2CCC(c3nnc(CN(C)C)n3C3CC3)CC2)ccn1
Percent Effect: -0.2407%

Cn1ncc2c(N3CCN(C(N)=O)CC3)nc(C3CCCC3)nc21
Percent Effect: -18.38%

CSCC(=O)N1C[C@H]2CC[C@@H]1CN(Cc1ccccc1)C2
Percent Effect: 13.06%

O=C(c1cccnc1)N1C[C@@H]2CC[C@H](C1)N(Cc1ncc[nH]1)C2
Percent Effect: -27.62%

CCCN(CCO)C(=O)C1CCC(=O)N(CCc2ccc(Cl)cc2)C1 (stereo not drawn)
Percent Effect: -16.9%

O=C1CC2(CCN(CCO)CC2)CN1Cc1cc(F)cc(F)c1
Percent Effect: 8.592%

Cc1nc[nH]c1-c1nc2cc(S(=O)(=O)N3CCCC3)ccc2n1C
Percent Effect: -57.95%

CC[C@@]1(O)CCN(C(=O)c2ccc(SC)cc2)C[C@H]1O
Percent Effect: 20.95%

O=C(CCn1cnnc1)N1CCCC(c2ncc[nH]2)C1 (stereo not drawn)
Percent Effect: -28.96%

OCCC1CN(C2CCC2)CCN1C1CCCC1 (stereo not drawn)
Percent Effect: -52.06%

O=C(CCc1ccc(O)cc1)N1CCC(Cc2ccc(CO)cc2)C1 (stereo not drawn)
Percent Effect: 16.91%

CC(Cn1cncn1)NCc1nncn1C1CCCCC1 (stereo not drawn)
Percent Effect: 4.936%

Cc1cc(N(C)Cc2noc(C)n2)n2nc(C)c(C)c2n1
Percent Effect: -16.19%

CCN(CCn1cccn1)Cc1nc(-c2cccs2)oc1C
Percent Effect: -16.9%

O=C(CCCc1cn[nH]c1)N1CCOCC(O)C1 (stereo not drawn)
Percent Effect: -19.59%

CNC(=O)c1ccc(OC2CCN(S(C)(=O)=O)CC2)c(Cl)c1
Percent Effect: 40.62%

CCS(=O)(=O)N(C)c1ccc(C(=O)N2CCCC(C)C2)cc1 (stereo not drawn)
Percent Effect: -22.28%

COCCCC1CCCN(C(=O)CCc2cc(O)no2)C1 (stereo not drawn)
Percent Effect: 4.573%

Cc1cnccc1N1CCCN(C(=O)CCCc2cn[nH]c2)CC1
Percent Effect: -14.12%

CN(C)C(=O)N1CCn2nc(CNC(=O)CCC(F)(F)F)cc2C1
Percent Effect: 2%

CSc1ccccc1CN1CCn2nc(CNC(C)=O)cc2C1
Percent Effect: -11.64%

Cc1cc(CN2CCN(C(=O)C(C)C)[C@@H]3CS(=O)(=O)C[C@@H]32)ccc1F
Percent Effect: 10.81%
